In patent US7598258B2, “Quinoline derivatives and quinazoline derivatives inhibiting autophosphorylation of macrophage colony stimulating factor receptor” (Kirin Beer Kabushiki Kaisha, priority 2002, dated 2009):

Target: T1, Human KDR (Homo sapiens, UniProt P35968)
T1 construct: expressed in transfected cells; host or cells: NIH3T3 cells (mouse fibroblasts)
Experiment: Inhibition of KDR phosphorylation in human KDR-transfected NIH3T3 cells (ELISA)
Type: cell-based
Conditions: for Selection ratio (KDR phosphorylation IC50 / c-fms phosphorylation IC50): class 0-3; for IC50: human KDR-transfected NIH3T3 cells, VEGF 100 ng/ml, ELISA, read-out: KDR phosphorylation 50% inhibitory concentration (IC50)
Procedure: Human KDR-transfected NIH3T3 cells (Sawano A et al., Cell Growth & Differentiation, 7, 213-221 (1996)) were cultured in a DMEM medium containing 10% fetal calf serum (purchased from GIBCO BRL) within a 5% carbon dioxide incubator until 50 to 70% confluent. The harvested cells were seeded into wells, containing the same medium, in a collagen type 1 coat 96-well flat-bottom plate in an amount of 1.5×10^4 per well, and cultured at 37° C. overnight. The medium was replaced with a 0.1% fetal calf serum-containing DMEM medium. The test compound dissolved in dimethyl sulfoxide was added to each well, and the cultivation was continued at 37° C. for additional one hr. A human recombinant vascular endothelial growth factor (hereinafter abbreviated to “VEGF”) was added to a final concentration of 100 ng/ml, followed by stimulation of cells at 37° C. for 2 min. The medium was removed, and the cells were washed with phosphate buffered saline (pH 7.4). A solubilization buffer (50 μl) (20 mM HEPES (pH 7.4), 150 mM NaCl, 0.2% Triton X-100, 10% glycerol, 5 mM sodium orthovanadylate, 5 mM disodium ethylenediaminetetraacetate, and 2 mM Na4P2O7) was then added thereto. The mixture was shaken at 4° C. for 2 hr to prepare a cell extract.
Separately, phosphate buffered saline (50 μl, pH 7.4) containing 5 μg/ml of anti-phospho-tyrosine antibody (PY20; purchased from Transduction Laboratories) was added to a microplate for ELISA (Maxisorp; purchased from NUNC), followed by standing at 4° C. overnight to be immobilized on the wells. After washing of the plate, 300 μl of a blocking solution was added, followed by standing at room temperature for 2 hr to perform blocking. After washing, the whole cell extract was transferred and was allowed to stand at 4° C. overnight. After washing, an anti-KDR antibody (purchased from Santa Cruz Biotechnology) was allowed to react at room temperature for one hr. Further, after washing, a peroxidase-labeled anti-rabbit Ig antibody (purchased from Amersham) was allowed to react at room temperature for one hr. After washing, a chromophoric substrate for peroxidase (purchased from Sumitomo Bakelite Co., Ltd.) was added thereto to initiate a reaction. After a suitable level of color development, a reaction termination solution was added to stop the reaction, and the absorbance at 450 nm was measured with a microplate reader. The KDR phosphorylation activity for each well was determined by presuming the absorbance without the addition of the test compound and with the addition of VEGF to be 100% KDR phosphorylation activity and the absorbance without the addition of the test compound and VEGF to be 0% KDR phosphorylation activity. The concentration of the test compound was varied on several levels, the KDR phosphorylation inhibitory rate was determined for each case, and the concentration of the test compound necessary for inhibiting 50% of KDR phosphorylation (IC50) was calculated.

T1 sequence (P35968 20-1356): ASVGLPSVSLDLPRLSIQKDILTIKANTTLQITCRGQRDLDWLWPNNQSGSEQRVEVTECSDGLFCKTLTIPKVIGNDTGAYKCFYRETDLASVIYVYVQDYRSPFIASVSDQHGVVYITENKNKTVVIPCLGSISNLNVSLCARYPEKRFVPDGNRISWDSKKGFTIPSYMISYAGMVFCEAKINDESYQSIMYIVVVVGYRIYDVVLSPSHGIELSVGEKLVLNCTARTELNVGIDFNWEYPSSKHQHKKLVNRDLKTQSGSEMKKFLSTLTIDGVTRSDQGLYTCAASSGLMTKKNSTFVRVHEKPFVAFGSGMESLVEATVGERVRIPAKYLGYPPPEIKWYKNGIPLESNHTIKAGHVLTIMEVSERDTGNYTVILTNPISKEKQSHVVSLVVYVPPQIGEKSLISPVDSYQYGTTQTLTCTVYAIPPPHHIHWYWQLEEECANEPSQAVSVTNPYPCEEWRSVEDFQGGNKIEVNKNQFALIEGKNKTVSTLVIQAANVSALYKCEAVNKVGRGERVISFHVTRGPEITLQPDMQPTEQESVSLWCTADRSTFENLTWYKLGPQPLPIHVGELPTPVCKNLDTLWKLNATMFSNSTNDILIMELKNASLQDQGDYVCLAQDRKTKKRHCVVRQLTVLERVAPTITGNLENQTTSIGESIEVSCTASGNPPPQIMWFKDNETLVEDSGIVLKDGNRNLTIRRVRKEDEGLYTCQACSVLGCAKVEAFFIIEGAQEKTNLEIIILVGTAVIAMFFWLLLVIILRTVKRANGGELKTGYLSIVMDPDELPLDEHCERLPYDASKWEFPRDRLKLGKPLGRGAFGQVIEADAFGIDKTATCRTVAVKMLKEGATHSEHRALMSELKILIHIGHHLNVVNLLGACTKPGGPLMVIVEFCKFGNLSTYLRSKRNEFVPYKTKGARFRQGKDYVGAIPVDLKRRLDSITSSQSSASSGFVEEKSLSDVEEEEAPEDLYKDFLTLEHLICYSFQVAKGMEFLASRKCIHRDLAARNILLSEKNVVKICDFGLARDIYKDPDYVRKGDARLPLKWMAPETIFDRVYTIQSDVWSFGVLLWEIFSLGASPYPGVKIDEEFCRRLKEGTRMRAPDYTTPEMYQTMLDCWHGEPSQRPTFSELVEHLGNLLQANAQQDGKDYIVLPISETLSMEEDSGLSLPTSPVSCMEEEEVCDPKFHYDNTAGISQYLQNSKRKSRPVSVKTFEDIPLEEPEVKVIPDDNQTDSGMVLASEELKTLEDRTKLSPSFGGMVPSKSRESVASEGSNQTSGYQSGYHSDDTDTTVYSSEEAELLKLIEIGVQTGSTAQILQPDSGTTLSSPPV

Row | SMILES | IC50 [nM] | Selection ratio (KDR phosphorylation IC50 / c-fms phosphorylation IC50)
1 | COc1cc2nccc(Oc3ccc(NC(=O)N[C@H](C)c4cccc(Br)c4)cc3OC)c2cc1OC [Example 61, N-[(1R)-1-(3-Bromophenyl)ethyl]-N′-{4-[(6,7-dimethoxy-4-quinolyl)oxy]-3-methoxyphenyl}urea] | 19.2 | 0 (KDR phosphorylation 50% inhibitory concentration [μM]/c-fms phosphorylation 50% inhibitory concentration [μM] was less than 5)
2 | COc1cc2c(Oc3ccc(NC(=O)NC(C)c4ccc(F)cc4)cc3F)ccnc2cc1OCCCN1CCOCC1 (stereo not drawn) [Example 64, N-(3-Fluoro-4-{[6-methoxy-7-(3-morpholinopropoxy)-4-quinolyl]oxy}phenyl)-N′-[1-(4-fluorophenyl)ethyl]urea] | 9.8 | 0 (KDR phosphorylation 50% inhibitory concentration [μM]/c-fms phosphorylation 50% inhibitory concentration [μM] was less than 5)
3 | COc1cc2c(Oc3ccc(NC(=O)NC(C)c4ccc(F)c(F)c4)cc3F)ccnc2cc1OCCCN1CCOCC1 (stereo not drawn) [Example 65, N-[1-(3,4-Difluorophenyl)ethyl]-N′-(3-fluoro-4-{[6-methoxy-7-(3-morpholinopropoxy)-4-quinolyl]oxy}phenyl)urea] | 31.9 | 0 (KDR phosphorylation 50% inhibitory concentration [μM]/c-fms phosphorylation 50% inhibitory concentration [μM] was less than 5)
4 | COc1cc2c(Oc3ccc(NC(=O)NC(C)c4ccc(F)cc4F)cc3F)ccnc2cc1OCCCN1CCOCC1 (stereo not drawn) [Example 66, N-[1-(2,4-Difluorophenyl)ethyl]-N′-(3-fluoro-4-{[6-methoxy-7-(3-morpholinopropoxy)-4-quinolyl]oxy}phenyl)urea] | 16.5 | 0 (KDR phosphorylation 50% inhibitory concentration [μM]/c-fms phosphorylation 50% inhibitory concentration [μM] was less than 5)
5 | COc1cc2c(Oc3ccc(NC(=O)NC(C)c4ccc(F)c(F)c4)c(F)c3)ccnc2cc1OCCCN1CCOCC1 (stereo not drawn) [Example 68, N-[1-(3,4-Difluorophenyl)ethyl]-N′-(2-fluoro-4-{[6-methoxy-7-(3-morpholinopropoxy)-4-quinolyl]oxy}phenyl)urea] | 5.6 | 0 (KDR phosphorylation 50% inhibitory concentration [μM]/c-fms phosphorylation 50% inhibitory concentration [μM] was less than 5)
6 | COc1cc2c(Oc3ccc(NC(=O)NC(C)c4ccc(F)cc4F)c(F)c3)ccnc2cc1OCCCN1CCOCC1 (stereo not drawn) [Example 69, N-[1-(2,4-Difluorophenyl)ethyl]-N′-(2-fluoro-4-{[6-methoxy-7-(3-morpholinopropoxy)-4-quinolyl]oxy}phenyl)urea] | 5.2 | 0 (KDR phosphorylation 50% inhibitory concentration [μM]/c-fms phosphorylation 50% inhibitory concentration [μM] was less than 5)

Compounds with a lower IC50, results first:

Row | IC50 [nM] | SMILES | Selection ratio (KDR phosphorylation IC50 / c-fms phosphorylation IC50)
7 | 2.9 | COc1cc2c(Oc3ccc(NC(=O)NC(C)c4ccc(F)cc4)c(F)c3)ccnc2cc1OCCCN1CCOCC1 (stereo not drawn) [Example 67, N-(2-Fluoro-4-{[6-methoxy-7-(3-morpholinopropoxy)-4-quinolyl]oxy}phenyl)-N′-[1-(4-fluorophenyl)ethyl]urea] | 0 (KDR phosphorylation 50% inhibitory concentration [μM]/c-fms phosphorylation 50% inhibitory concentration [μM] was less than 5)
8 | 2.7 | COc1cc2nccc(Oc3ccc(NC(=O)N[C@H](C)c4cccc(Br)c4)c(C)c3C)c2cc1OC [Example 62, N-[(1R)-1-(3-Bromophenyl)ethyl]-N′-{4-[(6,7-dimethoxy-4-quinolyl)oxy]-2,3-dimethylphenyl}urea] | 0 (KDR phosphorylation 50% inhibitory concentration [μM]/c-fms phosphorylation 50% inhibitory concentration [μM] was less than 5)
9 | 2.6 | COc1cc2nccc(Oc3ccc(NC(=O)N[C@H](C)c4cccc(Br)c4)c(F)c3)c2cc1OC [Example 63, N-[(1R)-1-(3-Bromophenyl)ethyl]-N′-{4-[(6,7-dimethoxy-4-quinolyl)oxy]-2-fluorophenyl}urea] | 0 (KDR phosphorylation 50% inhibitory concentration [μM]/c-fms phosphorylation 50% inhibitory concentration [μM] was less than 5)
